System: HL-60
Assay: Cytotoxicity against human HL60 cells assessed as inhibition of [3H]thymidine incorporation
Format: functional, cell-based

CC1(C)CC[C@]2(C(=O)O[C@@H]3OC[C@H](O)[C@H](O)[C@H]3O)[C@H](O)C[C@]3(C)C(=CC[C@@H]4[C@@]5(C)CC[C@H](O[C@@H]6O[C@H](CO)[C@@H](O)[C@H](O)[C@H]6O)C(C)(C)[C@@H]5CC[C@]43C)[C@@H]2C1 [ASTERLINGULATOSIDE A]
IC50: 39 µM

C[C@@H]1O[C@@H](O[C@H]2[C@H](OC(=O)[C@]34CCC(C)(C)C[C@H]3C3=CC[C@@H]5[C@@]6(C)CC[C@H](O[C@@H]7O[C@H](CO)[C@@H](O)[C@H](O)[C@H]7O)C(C)(C)[C@@H]6CC[C@@]5(C)[C@]3(C)C[C@H]4O)OC[C@H](O)[C@@H]2O)[C@H](O)[C@H](O)[C@H]1O [ASTERLINGULATOSIDE B]
IC50: 70.4 µM

C[C@@H]1O[C@@H](O[C@H]2[C@H](OC(=O)[C@]34CCC(C)(C)C[C@H]3C3=CC[C@@H]5[C@@]6(C)CC[C@H](O[C@@H]7O[C@H](CO)[C@@H](O)[C@H](O)[C@H]7O)C(C)(C)[C@@H]6CC[C@@]5(C)[C@]3(C)C[C@H]4O)OC[C@H](O)[C@@H]2O)[C@H](O)[C@H](O)[C@H]1O[C@@H]1OC[C@@H](O)[C@H](O)[C@H]1O [ASTERLINGULATOSIDE C]
IC50: 8.8 µM

C[C@@H]1O[C@@H](O[C@H]2[C@H](OC(=O)[C@]34CCC(C)(C)C[C@H]3C3=CC[C@@H]5[C@@]6(C)CC[C@H](O[C@@H]7O[C@H](CO)[C@@H](O)[C@H](O)[C@H]7O)C(C)(C)[C@@H]6CC[C@@]5(C)[C@]3(C)C[C@H]4O)OC[C@H](O)[C@@H]2O)[C@H](O)[C@H](O)[C@H]1O[C@@H]1OC[C@@H](O)[C@H](O[C@@H]2OC[C@@H](O)[C@H](O)[C@H]2O)[C@H]1O [ASTERLINGULATOSIDE]
IC50: 6.1 µM

— ChEMBL document CHEMBL1146437, “Asterlingulatosides C and D, cytotoxic triterpenoid saponins from Aster lingulatus” (J Nat Prod, 1997)
